Experimental data reported in patent US20250319063A1, “METHODS AND COMPOUNDS FOR RESTORING MUTANT P53 FUNCTION” (PMV PHARMACEUTICALS, INC., priority 2022, published 2025).
Entries after “also recorded” stand apart in the source; their conditions may differ. Where two headings read alike, the source gives them in different places.

Assay: Pharmacokinetic analysis of patient plasma (LC/MS/MS, noncompartmental analysis)
Format: in vivo
Details: for half-life: human, plasma
Excerpt: Serial blood samples for PK assessments were collected from all patients, including adolescents. Serial blood samples from all patients were also collected for PDc assessment of response to Compound 1. Pre- and on-treatment tumor biopsies for PDc assessment were optional. The relationship between plasma Compound 1 concentrations and pharmacodynamic biomarkers of response were explored. When the MTD was established, this cohort was expanded up to 12 patients. At least one additional cohort at a total daily dose below the MTD and considered to be active were expanded up to 12 patients. These expanded cohorts provided additional information about the relationship between dose, safety/tolerability, and efficacy to inform the selection of RP2D. Data from Phase 1 are reviewed to assess the benefit-risk for each dose level when selecting RP2D. The RP2D is determined as the dose resulting in the best therapeutic window for Compound 1 based on the review of all available safety, PK, PDc, and preliminary efficacy data. The RP2D can be the same as the MTD or below the MTD.
Compound 1 concentration data were summarized by dose level and Study Day using nominal time points. Individual and mean concentrations versus nominal time plots were presented by dose level. Pharmacokinetic parameter values were derived by non-compartmental methods by a validated pharmacokinetic analysis program. Actual times were used for all formal analyses. PK parameters were summarized by dose level. Individual values were listed for each PK parameter (e.g., Cmax, Tmax, AUC0-T, AUCtau, Ctrough/Ctau, accumulation ratios) by dose level, and the following (non-model-based) descriptive statistics were provided: N (number of patients with non-missing data), arithmetic mean, standard deviation, arithmetic percent coefficient of variation (CV) (calculated as 100×standard deviation/arithmetic mean), median, minimum, maximum, geometric mean, and geometric percent CV (calculated as: […]
Plasma samples were analyzed for levels of Compound 1 via a validated LC/MS/MS method. The concentration data were analyzed using Phoenix version 8.2 via noncompartmental analysis.

Q: Which results are given for CNC(=O)c1ccc(NCC#Cc2cc3c(N[C@@H]4CCN(C)C[C@@H]4F)cccc3n2CC(F)(F)F)c(OC)c1 [Compound 1, 4-((3-(4-(((3S,4R)-3-fluoro-1-methylpiperidin-4-yl)amino)-1-(2,2,2-trifluoroethyl)-1H-indol-2-yl)prop-2-yn-1-yl)amino)-3-methoxy-N-methylbenzamide]?
A: Exposures (2,000 mg QD, 2,500 mg QD, and 1,500 mg BID dose groups): Exposures were efficacious; half-life (oral, patients, Day 15, read-out: Median half-life (converted)): 19 h; half-life (patients, oral QD or BID dosing, read-out: Half-lives): 10 to 34 h; dose proportionality of exposure (patients, Day 1 through D15): dose proportional increases in Cmax and AUC values; also recorded: linear PK over the therapeutic dose range
